System: patients with presumed NASH and type 2 diabetes
Test: Phase 2 randomized placebo-controlled trial, 18 weeks: liver fat content (MRI-PDFF), glycemic control, liver enzymes, lipids, body weight, fibrosis markers
Assay type: in vivo, human
Conditions: 18 weeks; for Absolute Change in LFC (%), Mean / Relative Change in LFC (%), Mean / Absolute Change in LFC (%), LS Mean / Relative Change in LFC (%), LS Mean: Efficacy Set; for Absolute Change in LFC (%), Mean: placebo −2.0; for Relative Change in LFC (%), Mean: placebo −8.3; for Absolute Change in LFC (%), LS Mean: placebo −1.8; for Relative Change in LFC (%), LS Mean: placebo −8.2; for Mean change in LDL-c (mg/dL), Mean / Mean change in HbA1c (%), Mean / Relative change in GGT (%), Mean / Mean change in TG (mg/dL), Mean / Mean change in GGT (U/L), Mean / Mean change in ALT (U/L), Mean / Relative change in ALT (%), Mean / Mean change in HbA1c (%), LS Mean / Mean change in LDL-c (mg/dL), LS Mean / Mean change in TG (mg/dL), LS Mean / Mean change in GGT (U/L), LS Mean / Mean change in ALT (U/L), LS Mean: Modified Efficacy Set; for Mean change in LDL-c (mg/dL), Mean: placebo 0; for Mean change in HbA1c (%), Mean / Mean change in HbA1c (%), LS Mean: placebo 0.1; for Relative change in GGT (%), Mean: placebo 5; for Mean change in TG (mg/dL), Mean: placebo 18; for Mean change in GGT (U/L), Mean / Mean change in ALT (U/L), LS Mean: placebo −2; for Mean change in ALT (U/L), Mean: placebo −3; for Relative change in ALT (%), Mean: placebo −6; for Mean change in LDL-c (mg/dL), LS Mean: placebo 1; for Mean change in TG (mg/dL), LS Mean: placebo 19; for Mean change in GGT (U/L), LS Mean: placebo −1; for Mean change in Body weight (kg), Mean / Mean change in Body weight (kg), LS Mean: Safety Set, placebo −1.1
Text: The aim of this study was to determine the effect of two different doses of BUDCA on liver fat content (LFC) in patients with diabetes and presumed NASH when administered for 18 weeks. This phase 2 clinical trial tested the effect of BUDCA in patients with fatty liver disease and diabetes. The group taking the higher dose of this new drug had significant reductions in the amount of fat in their liver as well as improvement in their diabetes.
A prospective, randomized, placebo-controlled trial of two doses of BUDCA administered orally was conducted in a cohort of 100 subjects with fatty liver disease and diabetes. Treatment was for 18 weeks and endpoints measured included reduction in liver fat content measured by […] proton density fat fraction, improvement in glycemic control, changes in liver-associated enzymes, safety and tolerability.
Patients with diabetes and presumed NASH were randomized into one of three treatment groups, as follows: 1) BUDCA 500 mg BID 2) 1,000 mg BID and 3) matching placebo. Presumed NASH was defined based largely on magnetic resonance imaging derived proton density fat fraction (MRI-PDFF) of 10% or more. Additional inclusion criteria further enriched the study population for having NASH by virtue of requiring corrected T1 (cT1) of more than 830 milliseconds and elevated serum aspartate aminotransferase (AST)≥20 units per liter (6). Subjects had to be overweight or obese with body mass index of 25 kg/m^2 or more.
Study subjects underwent an initial screening evaluation, including measurement of LFC by MRI-PDFF. Subjects were excluded if they had known liver disease other than fatty liver disease or a history of excessive alcohol consumption. Although liver biopsies were not done as a part of this study, subjects with clear evidence of cirrhosis were excluded, based upon a platelet count of less than 150,000/mm^3, serum albumin levels less than […] or a current or previous history of clinical hepatic decompensation.
Those who were deemed eligible were then randomized into one of the three treatment groups described above and underwent a further baseline evaluation at the time of randomization and initial dosing. Subjects were permitted to continue their current treatment regimen for diabetes provided they had been on a stable dose regimen for at least 90 days.
LFC was measured at baseline and after 18 weeks of therapy. In addition, changes in liver chemistry tests, measures of glycemic control and serum lipid levels were also assessed during and at the end of treatment.
Descriptive Statistics were used to summarize continuous data, and frequencies and percentages were used to summarize categorical data. The Safety Set consisted of all subjects who received at least one dose of study treatment. The Modified Efficacy Set is a subset of the Safety Set consisting of subjects that had at least one post-dose MRI-PDFF assessment. […] The primary endpoint was an absolute change from Baseline to Week 18 (or ET) in Liver Fat Content. Primary Endpoint summary measures were provided in both the Efficacy and Modified Efficacy sets, with the Efficacy Set prespecified as the primary analysis set. All other endpoints were prespecified to use the Modified Efficacy Set. Comparisons between active treatment groups relative to placebo were tested using Analysis of Covariance (ANCOVA) with treatment group as a fixed effect and baseline value of the parameters of interest as covariates. ANCOVA based LS Means and raw means have been reported. For statistical analysis of laboratory parameters (i.e. P-values), multiple imputation was used to take missing data into account. A two-sided alpha level of 0.05 without adjustment for multiple tests was used to indicate statistical significance. Analyses were performed using SAS System version 9.4.
Effects of treatment with BUDCA on AST to Platelet Ratio Index (APRI) and Fibrosis-4 (FIB-4) were also measured.

COc1ccc2cc3[n+](cc2c1OC)CCc1cc2c(cc1-3)OCO2.C[C@H](CCC(=O)[O-])[C@H]1CC[C@H]2[C@@H]3[C@@H](O)C[C@@H]4C[C@H](O)CC[C@]4(C)[C@H]3CC[C@]12C [BUDCA, berberine ursodeoxycholate]
Absolute Change in LFC (%), Mean (500 mg BID, N 30): −2.9%
Relative Change in LFC (%), Mean (500 mg BID, N 30): −15.1%
Absolute Change in LFC (%), LS Mean (500 mg BID, P 0.199): −3.2%
Relative Change in LFC (%), LS Mean (500 mg BID, P 0.196): −15.9%
Mean change in LDL-c (mg/dL), Mean (500 mg BID, N 27): 5 mg/dL
Mean change in HbA1c (%), Mean (500 mg BID, N 29): −0.3%
Relative change in GGT (%), Mean (500 mg BID, N 29): −23%
Mean change in TG (mg/dL), Mean (500 mg BID, N 29): -41 mg/dL
Mean change in GGT (U/L), Mean (500 mg BID, N 29): −19 U/L
Mean change in ALT (U/L), Mean (500 mg BID, N 29): −4 U/L
Relative change in ALT (%), Mean (500 mg BID, N 29): −6%
Mean change in HbA1c (%), LS Mean (500 mg BID, P 0.029): −0.4%
Mean change in LDL-c (mg/dL), LS Mean (500 mg BID, P 0.955): 1 mg/dL
Mean change in TG (mg/dL), LS Mean (500 mg BID, P 0.041): -36 mg/dL
Mean change in GGT (U/L), LS Mean (500 mg BID, P 0.005): −20 U/L
Mean change in ALT (U/L), LS Mean (500 mg BID, P 0.674): −5 U/L
Mean change in Body weight (kg), Mean (500 mg BID, N 29): -1.6 kg
Mean change in Body weight (kg), LS Mean (500 mg BID, P 0.554): -1.6 kg
decrease in triglyceride level (500 mg BID, P=0.04): 41 mg/dL
Proportion achieving ≥ 30% relative reduction in LFC (subjects/total) (500 mg BID, placebo 7/33): 6/31
Proportion achieving ≥ 5% Absolute Reduction in LFC (subjects/total) (500 mg BID, placebo 8/33): 10/31
Proportion achieving ≥ 30% relative reduction in LFC (percent) (500 mg BID, placebo 21%): (19%)
Proportion achieving ≥ 5% Absolute Reduction in LFC (percent) (500 mg BID, placebo 24%): (32%)
decrease in mean HbA1c level (500 mg BID, placebo increase of 0.1%): 0.3%
Absolute Change in LFC (%), Mean (1,000 mg BID, N 27): −4.8%
Relative Change in LFC (%), Mean (1,000 mg BID, N 27): −24.1%
Absolute Change in LFC (%), LS Mean (1,000 mg BID, P 0.011): −4.7%
Relative Change in LFC (%), LS Mean (1,000 mg BID, P 0.016): −23.3%
Mean change in LDL-c (mg/dL), Mean (1,000 mg BID, N 25): -16 mg/dL
Mean change in HbA1c (%), Mean (1,000 mg BID, N 26): −0.6%
Relative change in GGT (%), Mean (1,000 mg BID, N 26): −29%
Mean change in TG (mg/dL), Mean (1,000 mg BID, N 26): -24 mg/dL
Mean change in GGT (U/L), Mean (1,000 mg BID, N 26): −30 U/L
Mean change in ALT (U/L), Mean (1,000 mg BID, N 26): −19 U/L
Relative change in ALT (%), Mean (1,000 mg BID, N 26): −21%
Mean change in HbA1c (%), LS Mean (1,000 mg BID, P 0.005): −0.5%
Mean change in LDL-c (mg/dL), LS Mean (1,000 mg BID, P 0.072): -12 mg/dL
Mean change in TG (mg/dL), LS Mean (1,000 mg BID, P 0.120): -24 mg/dL
Mean change in GGT (U/L), LS Mean (1,000 mg BID, P <0.001): −25 U/L
Mean change in ALT (U/L), LS Mean (1,000 mg BID, P 0.007): −16 U/L
Mean change in Body weight (kg), Mean (1,000 mg BID, N 27): -3.5 kg
Mean change in Body weight (kg), LS Mean (1,000 mg BID, P 0.012): -3.5 kg
average body weight loss (1,000 mg BID, P=0.012): 3.5 kg

Reference: patent US20230112845A1, “COMPOSITIONS OF BERBERINE URSODE[…] METHODS THEREOF FOR TREATING FATTY LIVER DISEASE, DIABETES AND HYPERLIPIDEMIA” (SHENZHEN HIGHTIDE BIOPHARMACEUTICAL LTD., priority 2020, published 2023)
